Reference: a melting point compilation (Tetko et al.; mined from patent text by program, amines drawn as free bases though some values may be those of a salt)

melting point	SMILES
152 to 158 °C	O=C(NCCCN1CCN(c2ccccc2OCC(F)(F)F)CC1)c1csc2c(=O)cc(-c3ccccc3)oc12
152 to 155 °C	OCCOc1ccc(C=Cc2ncn(CC(O)(Cn3cncn3)c3ccc(F)cc3F)n2)cc1 (centres undefined)
234 °C	CCOC(=O)c1cnn(C)c1C(=O)Nc1ccc2nc(N3CCOCC3)nn2c1
199 to 200 °C	CN1CCN(c2cccc3c2C[C@H](NC(=O)c2ccc(OS(C)(=O)=O)cc2)CC3)CC1
124 to 126 °C	CCOC(=O)c1cc2c(Cl)c(OC)c(OC)cc2s1
93 to 96 °C	O=C1NC(=O)C(Cc2ccc(Oc3ccc(Oc4ccc(CC5OC(=O)NC5=O)cc4)cc3)cc2)O1 (centres undefined)
67 to 68 °C	CCCCCC1CC=C(c2ccc(Br)cc2)CC1 (centres undefined)
181 to 183 °C	CC(C)N1OCCC(=Cc2cc(C(C)(C)C)c(O)c(C(C)(C)C)c2)C1=O
69 to 70 °C	CCOC(=O)c1cnn2c(-c3cccc(C)c3)ccnc12
45 to 46 °C	CCOC(=O)CCCOc1ccc(C23CC4CC(CC(C4)C2)C3)cc1
199 to 203 °C	CCn1cc(C(=O)O)c(=O)c2cc(F)c(-c3csc(CN)n3)c(F)c21
167 to 168 °C	O=Cc1c2n(c3ccccc13)CCNCC2
98 to 110 °C	CCSCC(=O)N1CCSC1COc1ccc(OC)cc1 (centres undefined)
128 to 130 °C	FC(F)(F)Oc1ccc(Nc2cc(-n3ccc(C(F)(F)F)n3)c3ccccc3n2)cc1
65 to 70 °C	COC12c3ccc(Cl)cc3CC1SC(=CN)N2C (centres undefined)
248 to 250 °C	CC1NC(=O)NN=C1c1ccc(N)cc1 (centres undefined)
135 to 136 °C	C#Cc1ccc(CO[C@@H]2COc3nc([N+](=O)[O-])cn3C2)nc1
168 to 169 °C	CC(C)c1cccc(C(C)C)c1NC(=O)CSCC(=O)O
144 to 145 °C	NC(Cc1nc2cc(F)c(F)cc2nc1CP(=O)(O)O)C(=O)O (centres undefined)

melting point	SMILES
184 °C	Cc1n[nH]c([N+](=O)[O-])c1-c1ncc([N+](=O)[O-])n1C
122 to 124 °C	CN(C)c1ccc2c(c1)CNC2=O
71 to 74 °C	COc1ccc(C(=O)C(CCC(=O)c2ccc(F)cc2)c2ccc(OC)cc2)cc1 (centres undefined)
128 to 129 °C	CCCc1cc(F)c(C(=O)O)c([N+](=O)[O-])c1O
222 to 224 °C	COC(=O)c1ccc(Cn2c(C(=O)NC(N)=S)cc3cc(C)cc(C)c32)cc1
> 250 °C	COc1ccccc1C1C(C#N)=C(C(C)C)Nc2n[nH]cc21 (centres undefined)
45 to 47 °C	C[C@@H](CN1C(=O)c2ccccc2C1=O)CC(F)(F)F
181 to 183 °C	CC(C)(C)CN1C(=O)N(CC(=O)O)N=C(c2ccccc2Cl)c2cc(Cl)ccc21
258 to 259 °C	CCCC(Cl)(Cl)C(NC(=O)c1ccc(Cl)cc1)Nc1c(Nc2cccnc2)c(=O)c1=O (centres undefined)
182 to 184 °C	O=C(O)C(CCN1C(=O)c2ccccc2C1=O)Oc1ccc(-c2ccc(-c3c(Cc4ccccc4)oc4ccccc34)cc2)cc1 (centres undefined)
216 to 219 °C	O=C(Nc1cccc(Cl)c1C(=O)O)c1cccc(F)c1
174 to 176 °C	CC(=O)N=C1C(OC(C)=O)=C(NC(C)=O)C2CC(=O)CC1C2NC(C)=O (centres undefined)
141 to 144 °C	OC1CSC(Oc2ccc(-c3ccc(F)nc3)nc2F)C(O)C1O (centres undefined)
180 °C	Fc1cccc(COc2ccc(Nc3ncnc4sc(C#Cc5ccccn5)cc34)cc2Cl)c1
173 to 175 °C	Cc1oc(-c2ccccc2)nc1CCOc1ccc(CC(C(=O)O)C(=O)O)cc1
114 to 116 °C	NC(=O)CCC(C(=O)O)N1C(=O)c2cccc(NCc3ccco3)c2C1=O (centres undefined)
237 to 240 °C	O=C1NC(=O)c2c1c(-c1ccccc1Cl)cc1oc3cc(OS(=O)(=O)C(F)(F)F)c(O)cc3c21
88 °C	CC(C#N)Oc1cccc(CN2C(=O)c3cccc(NC(=O)c4ccc(Cl)s4)c3C2=O)c1 (centres undefined)
145 °C	O=C(COc1cc(-c2ccccc2)nc2ccccc12)N1CCOCC1

SMILES	melting point
CCOC(=O)c1cc2c3n(ccc-2n1)CC(CCl)=N3	270 to 272 °C
